According to the supplement of paper PMC11451515:

Test system: NOMO1
Experiment: cell viability relative to DMSO control; higher = less cytotoxic
Conditions: 48 h
Outline: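 NOMO1 or SEM cells were plated at 500 cells/well and P12-Ichikawa cells at 1000 cells/well in 1536-well plates (5 μl), after each leukemia line had been adapted for at least four passages in each medium. Pin dosing delivered library compounds in DMSO at 11 threefold concentrations, 47 μM to 0.79 nM. CellTiter-Glo One luminescence was read after 48 h at 37°C. Viability is reported as a per-plate percentage of DMSO wells, with cell-free wells as background.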

[1] = HPLM + 10% dialyzed FBS, 0.000781 µM
[2] = HPLM + 10% dialyzed FBS, 0.00234 µM
[3] = HPLM + 10% dialyzed FBS, 0.00702 µM
[4] = HPLM + 10% dialyzed FBS, 0.0211 µM
[5] = HPLM + 10% dialyzed FBS, 0.0632 µM
[6] = HPLM + 10% dialyzed FBS, 0.19 µM
[7] = HPLM + 10% dialyzed FBS, 0.569 µM
[8] = HPLM + 10% dialyzed FBS, 1.71 µM
[9] = HPLM + 10% dialyzed FBS, 5.12 µM
[10] = HPLM + 10% dialyzed FBS, 15.4 µM
[11] = HPLM + 10% dialyzed FBS, 46.1 µM
[12] = RPMI 5 mM glucose + 10% FBS, 0.000781 µM
[13] = RPMI 5 mM glucose + 10% FBS, 0.00234 µM
[14] = RPMI 5 mM glucose + 10% FBS, 0.00702 µM
[15] = RPMI 5 mM glucose + 10% FBS, 0.0211 µM
[16] = RPMI 5 mM glucose + 10% FBS, 0.0632 µM
[17] = RPMI 5 mM glucose + 10% FBS, 0.19 µM
[18] = RPMI 5 mM glucose + 10% FBS, 0.569 µM
[19] = RPMI 5 mM glucose + 10% FBS, 1.71 µM
[20] = RPMI 5 mM glucose + 10% FBS, 5.12 µM
[21] = RPMI 5 mM glucose + 10% FBS, 15.4 µM
[22] = RPMI 5 mM glucose + 10% FBS, 46.1 µM
[23] = RPMI 5 mM glucose + 10% dialyzed FBS, 0.000781 µM
[24] = RPMI 5 mM glucose + 10% dialyzed FBS, 0.00234 µM
[25] = RPMI 5 mM glucose + 10% dialyzed FBS, 0.00702 µM
[26] = RPMI 5 mM glucose + 10% dialyzed FBS, 0.0211 µM
[27] = RPMI 5 mM glucose + 10% dialyzed FBS, 0.0632 µM
[28] = RPMI 5 mM glucose + 10% dialyzed FBS, 0.19 µM
[29] = RPMI 5 mM glucose + 10% dialyzed FBS, 0.569 µM
[30] = RPMI 5 mM glucose + 10% dialyzed FBS, 1.71 µM
[31] = RPMI 5 mM glucose + 10% dialyzed FBS, 5.12 µM
[32] = RPMI 5 mM glucose + 10% dialyzed FBS, 15.4 µM
[33] = RPMI 5 mM glucose + 10% dialyzed FBS, 46.1 µM

SMILES	cell viability [1] [%]	cell viability [2] [%]	cell viability [3] [%]	cell viability [4] [%]	cell viability [5] [%]	cell viability [6] [%]	cell viability [7] [%]	cell viability [8] [%]	cell viability [9] [%]	cell viability [10] [%]	cell viability [11] [%]	cell viability [12] [%]	cell viability [13] [%]	cell viability [14] [%]	cell viability [15] [%]	cell viability [16] [%]	cell viability [17] [%]	cell viability [18] [%]	cell viability [19] [%]	cell viability [20] [%]	cell viability [21] [%]	cell viability [22] [%]	cell viability [23] [%]	cell viability [24] [%]	cell viability [25] [%]	cell viability [26] [%]	cell viability [27] [%]	cell viability [28] [%]	cell viability [29] [%]	cell viability [30] [%]	cell viability [31] [%]	cell viability [32] [%]	cell viability [33] [%]
O=C(O)C(=O)Nc1cccc(-c2nnn[nH]2)c1	96.8	117	117	119	114	108	130	114	123	106	116	94.3	102	109	95.8	111	108	97.3	106	108	120	99.2	109	103	111	99.2	112	106	126	104	113	113	120
Cc1ccc([S+](=O)([O-])NC(=O)NN2CC3CCCC3C2)cc1 (centres undefined)	108	127	114	104	134	113	96.6	104	111	53.4	30.3	98	104	105	104	106	99.5	113	102	108	55.6	24.1	96.4	118	101	105	106	110	103	106	110	57.3	36
C=C1C(=O)O[C@@H]2[C@H]3O[C@]3(C)CC/C=C(\C)CC[C@@H]12	110	117	110	115	117	142	114	93.8	15.9	14.9	3.29	115	121	116	113	112	108	106	102	46.4	5.46	3.54	98.1	103	104	113	114	124	112	99.1	62.3	6.1	3.17
CCNC(=O)c1noc(-c2cc(C(C)C)c(O)cc2O)c1-c1ccc(CN2CCOCC2)cc1	91.6	98.5	109	121	76.2	19.2	24.1	20	20.9	19.3	21.2	119	108	123	116	92.6	13.5	13.7	15.4	16	16	19.3	107	128	114	131	96.4	18.9	17.3	20.3	17.4	19.5	22.4
OCCN1CCN(CCCN2c3ccccc3Sc3ccc(C(F)(F)F)cc32)CC1	123	121	107	122	111	106	98.8	122	73.2	43	27.7	104	104	100	121	97.5	110	112	105	104	25.7	21.3	91.6	102	108	105	105	109	110	97.3	109	93.9	24.8
CN1CCN(CC1)C/2=N/C3=CC=CC=C3NC4=C2C=C(C)S4	94.5	101	102	109	110	96.1	93.5	86.3	86.6	75.5	77.1	89.8	85.5	80.5	88.5	100	82.4	96.7	83.9	86.1	82	97.1	86.1	72.9	78.6	85	88.9	86.9	99.3	89.4	76.2	69.7	81.2
COC(=O)Nc1nc2cc(Sc3ccccc3)ccc2[nH]1												114	122	124	113	120	107	115	111	22.8	42.9	36.8	122	111	122	115	140	119	119	115	32.6	35.1	29.7
CO[C@H]1C[C@H]2OC[C@@]2(OC(C)=O)[C@H]3[C@H](OC(=O)C4=CC=CC=C4)[C@]5(O)C[C@H](OC(=O)[C@H](O)[C@@H](NC(=O)OC(C)(C)C)C6=CC=CC=C6)/C(=C(/[C@@H](OC)C(=O)[C@]13C)C5(C)C)C	75.9	46	28.5	25.8	19.6	19.9	19.3	18.8	27.7	19.9	7.15	68.2	79.6	86.1	14.6	10.7	13.3	11.9	12.6	14.9	11	4.22	64.3	81	82.7	19	14.9	13.8	13.7	13.7	17.5	16.8	7.39
CN1CCC(=C2c3ccccc3CCc3sccc32)CC1	88.8	107	111	101	126	118	103	104	121	103	44.5	106	109	104	106	125	105	114	107	102	108	109	100	108	113	112	112	110	116	108	106	106	65.7
Cc1ccc(C)c(OCCCC(C)(C)C(=O)O)c1	92.3	84.2	93	95.6	89.9	102	105	88.4	98.9	104	98.3	78.1	93.7	101	94.1	85.5	105	99.4	88.7	92.1	96.5	92.9	76.5	92	88.9	94.1	96.1	103	101	81.3	88.3	106	96.2
CON(C)C(=O)N1\N=C(/S[C@]1(CCCN)C2=CC=CC=C2)C3=CC(=CC=C3F)F	65	41.6	39.2	46.7	46.2	40.4	30.8	37.2	32.1	24.7	24.1	55.1	22.8	26.3	27.1	21.7	20	23.4	22.8	20.6	15.6	15.7	96	30.7	36.8	35	32.2	31.2	27.9	32.6	28.5	22.6	22.5
CNC(=O)c1cc(Oc2ccc(NC(=O)Nc3ccc(Cl)c(C(F)(F)F)c3)c(F)c2)ccn1	81.7	96.4	112	107	105	104	109	105	73.6	77.1	70.6	86.5	103	94.8	108	97.1	94.3	95.6	86.2	85.4	83.4	69.7	88	94.8	89.8	92.4	98.5	109	104	97.9	80.3	82.2	73.6
O=C(O)CCCc1ccc(N(CCCl)CCCl)cc1	111	119	119	143	118	151	109	134	138	123	86.4	115	110	134	135	127	132	146	132	141	135	61.4	119	125	131	125	130	125	129	108	152	141	63.9
Clc1ccc(C(Cn2ccnc2)OCc2ccsc2Cl)c(Cl)c1 (centres undefined)	102	127	114	116	103	98.8	108	113	134	117	80.6	89.7	106	119	102	110	102	119	105	96.6	111	94.2	88	113	112	129	99	122	118	113	96.3	100	73.5
CN(C)[C@H]\1[C@@H]2[C@@H](O)[C@H]3\C(=C(O)/[C@]2(O)C(=O)\C(=C1O)C(N)=O)C(=O)C4=C(C=CC=C4O)[C@@]3(C)O	134	117	117	138	127	131	130	108	113	104	30.7	112	131	120	135	123	126	122	117	113	119	37.1	117	128	117	122	119	128	123	136	105	104	30.1
